Measurements from US9101616B2, “Aryl substituted carboxamide derivatives as calcium or sodium channel blockers” (RaQualia Pharma Inc., priority 2009, dated 2015).

target: T1, human T-type channel alpha-1H (CaV 3.2) (Homo sapiens, UniProt O95180); experiment: Ca2+ Influx Assay (cell-based fluorescent, FDSS); conditions: HEK 293 cells expressing human CaV 3.2
T1 construct: expressed in transfected cells; host or cells: HEK 293
Outline: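 HEK293 cells stably expressing human CaV3.2, loaded with Fluo-4-AM 1 h at 37 °C. Compound added 4.5 min before potassium ionophore, then high-K+ depolarization with fluorescence monitored on FDSS. IC50 from 7-point dose-response, duplicate wells.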

T1 sequence (O95180 whole entry): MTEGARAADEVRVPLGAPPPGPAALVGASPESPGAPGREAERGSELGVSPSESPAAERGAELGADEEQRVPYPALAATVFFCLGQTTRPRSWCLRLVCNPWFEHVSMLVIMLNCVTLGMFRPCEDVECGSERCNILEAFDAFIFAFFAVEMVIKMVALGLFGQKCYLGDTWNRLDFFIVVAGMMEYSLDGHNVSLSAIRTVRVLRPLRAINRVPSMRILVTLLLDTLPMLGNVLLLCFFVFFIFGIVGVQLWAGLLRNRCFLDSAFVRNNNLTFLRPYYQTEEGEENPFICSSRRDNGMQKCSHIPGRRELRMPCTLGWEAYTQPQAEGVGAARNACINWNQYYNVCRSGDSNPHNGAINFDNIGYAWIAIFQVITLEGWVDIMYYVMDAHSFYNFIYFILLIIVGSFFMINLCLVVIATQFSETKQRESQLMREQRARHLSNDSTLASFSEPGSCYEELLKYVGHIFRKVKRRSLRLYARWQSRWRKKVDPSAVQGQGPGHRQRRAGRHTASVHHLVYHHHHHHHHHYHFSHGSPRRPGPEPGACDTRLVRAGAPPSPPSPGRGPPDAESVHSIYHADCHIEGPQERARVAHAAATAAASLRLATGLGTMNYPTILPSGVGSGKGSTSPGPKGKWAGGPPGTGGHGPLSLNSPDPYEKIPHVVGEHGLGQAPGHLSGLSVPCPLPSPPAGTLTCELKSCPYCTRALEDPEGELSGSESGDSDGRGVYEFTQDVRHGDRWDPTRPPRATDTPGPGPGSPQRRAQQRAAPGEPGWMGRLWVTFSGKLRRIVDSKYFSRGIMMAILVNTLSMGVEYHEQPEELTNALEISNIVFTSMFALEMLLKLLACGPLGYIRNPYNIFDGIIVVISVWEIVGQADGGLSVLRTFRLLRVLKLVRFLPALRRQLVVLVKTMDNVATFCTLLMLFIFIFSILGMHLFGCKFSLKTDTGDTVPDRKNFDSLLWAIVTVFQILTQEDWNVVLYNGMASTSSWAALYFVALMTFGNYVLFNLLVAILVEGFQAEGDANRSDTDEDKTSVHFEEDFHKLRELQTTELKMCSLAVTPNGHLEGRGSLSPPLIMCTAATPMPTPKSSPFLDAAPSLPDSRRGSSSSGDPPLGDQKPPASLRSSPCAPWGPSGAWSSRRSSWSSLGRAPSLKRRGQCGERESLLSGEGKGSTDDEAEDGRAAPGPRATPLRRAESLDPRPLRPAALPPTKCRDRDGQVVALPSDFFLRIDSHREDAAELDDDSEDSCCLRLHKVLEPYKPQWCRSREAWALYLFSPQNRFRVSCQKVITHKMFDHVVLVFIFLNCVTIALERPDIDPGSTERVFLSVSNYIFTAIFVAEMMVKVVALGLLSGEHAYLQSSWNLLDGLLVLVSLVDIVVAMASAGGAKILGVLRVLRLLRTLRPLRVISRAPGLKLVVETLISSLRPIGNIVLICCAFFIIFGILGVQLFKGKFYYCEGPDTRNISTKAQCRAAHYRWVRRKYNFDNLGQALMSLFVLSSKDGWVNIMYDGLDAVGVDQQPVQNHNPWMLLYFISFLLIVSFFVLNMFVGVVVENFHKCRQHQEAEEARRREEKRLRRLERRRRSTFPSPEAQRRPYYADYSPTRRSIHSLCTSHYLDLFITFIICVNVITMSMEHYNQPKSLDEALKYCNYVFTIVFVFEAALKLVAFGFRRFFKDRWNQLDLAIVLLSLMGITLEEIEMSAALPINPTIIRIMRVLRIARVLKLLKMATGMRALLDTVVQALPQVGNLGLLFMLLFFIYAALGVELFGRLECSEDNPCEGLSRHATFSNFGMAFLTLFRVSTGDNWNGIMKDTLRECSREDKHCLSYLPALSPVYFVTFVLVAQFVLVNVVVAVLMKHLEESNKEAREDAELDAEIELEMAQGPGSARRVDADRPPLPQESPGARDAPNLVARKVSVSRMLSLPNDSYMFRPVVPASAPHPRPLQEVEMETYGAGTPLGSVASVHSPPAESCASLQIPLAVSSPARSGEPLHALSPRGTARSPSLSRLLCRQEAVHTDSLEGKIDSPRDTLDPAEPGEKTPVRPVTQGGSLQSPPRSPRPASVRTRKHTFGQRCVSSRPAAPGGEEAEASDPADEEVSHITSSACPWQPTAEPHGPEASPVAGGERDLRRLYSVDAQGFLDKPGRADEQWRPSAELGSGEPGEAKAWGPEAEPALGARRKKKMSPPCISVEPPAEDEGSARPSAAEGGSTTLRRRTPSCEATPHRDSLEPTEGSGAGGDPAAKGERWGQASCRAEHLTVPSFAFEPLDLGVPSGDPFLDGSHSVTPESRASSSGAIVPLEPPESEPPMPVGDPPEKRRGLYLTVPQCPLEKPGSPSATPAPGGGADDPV

| Compound | IC50 [µM] |
| --- | --- |
| C[C@@H](NC(=O)C1CC1c1nc2ccccc2n1C)c1cnc(OCC(F)(F)F)cn1 (stereo in doubt) [Example 244, trans-2-(1-methyl-1H-benzo[d]imidazol-2-yl)-N-((R)-1-(5-(2,2,2-trifluoroethoxy)pyrazin-2-yl)ethyl)cyclopropanecarboxamide] | ≤ 0.3 |
| C[C@@H](NC(=O)C1CC1c1nc2ccccc2n1C)c1ccc(OCC(F)(F)F)nc1 (stereo in doubt) [Example 245, trans-2-(1-methyl-1H-benzo[d]imidazol-2-yl)-N-((R)-1-(6-(2,2,2-trifluoroethoxy)pyridin-3-yl)ethyl)cyclopropanecarboxamide] | ≤ 0.3 |
| C[C@H](NC(=O)[C@@H]1C[C@H]1c1cccc(OCc2ccccc2)c1)c1ccc(OCC(F)(F)F)cn1 (stereo in doubt) [Example 346, (1R*,2R*)-2-(3-(benzyloxy)phenyl)-N-((S)-1-(5-(2,2,2-trifluoroethoxy)pyridin-2-yl)ethyl)cyclopropanecarboxamide] | ≤ 0.3 |
| C[C@@H](NC(=O)COc1ccc(C(F)(F)F)cc1)c1ccc(OCC(F)(F)F)cn1 [Example 3, (R)-N-(1-(5-(2,2,2-trifluoroethoxy)pyridin-2-yl)ethyl)-2-(4-(trifluoromethyl)phenoxy)acetamide] | ≤ 0.3 |
| C[C@@H](NC(=O)CCc1c[nH]c2ccccc12)c1ccc(OCC(F)(F)F)cn1 [Example 33, (R)-3-(1H-indol-3-yl)-N-(1-(5-(2,2,2-trifluoroethoxy)pyridin-2-yl)ethyl)propanamide] | ≤ 0.3 |
| C[C@@H](NC(=O)CCCc1c[nH]c2ccccc12)c1ccc(OCC(F)(F)F)cn1 [Example 57, (R)-4-(1H-indol-3-yl)-N-(1-(5-(2,2,2-trifluoroethoxy)pyridin-2-yl)ethyl)butanamide] | ≤ 0.3 |
| Cc1cc(OCC(F)(F)F)cnc1[C@@H](C)NC(=O)CCc1c[nH]c2ccccc12 [Example 104, (R)-3-(1H-indol-3-yl)-N-(1-(3-methyl-5-(2,2,2-trifluoroethoxy)pyridin-2-yl)ethyl)propanamide] | ≤ 0.3 |
| C[C@@H](NC(=O)C1CC1c1cc(F)cc(F)c1)c1ccc(OCC2CC2)cn1 (stereo partly drawn) [Example 193, trans-N-((R)-1-(5-(cyclopropylmethoxy)pyridin-2-yl)ethyl)-2-(3,5-difluorophenyl) cyclopropanecarboxamide] | ≤ 0.3 |
| C[C@@H](NC(=O)C1CC1c1cc2cc(F)ccc2[nH]1)c1ccc(OCC(F)(F)F)nc1 (stereo partly drawn) [Example 210, trans-2-(5-fluoro-1H-indol-2-yl)-N-((R)-1-(6-(2,2,2-trifluoroethoxy)pridin-3-yl)ethyl)cyclopropanecarboxamide] | ≤ 0.3 |
| C[C@@H](NC(=O)C1CC1c1ccc2cnn(C)c2c1)c1ccc(OCC(F)(F)F)nc1 (stereo partly drawn) [Example 228, trans-2-(1-methyl-1H-indazol-6-yl)-N-((R)-(6-(2,2,2-trifluoroethoxy)pyridin-3-yl)ethyl)cyclopropanecarboxamide] | ≤ 0.3 |
| C[C@@H](NC(=O)C1CC1c1ccc2cnn(C)c2c1)c1cnc(OCC(F)(F)F)cn1 (stereo partly drawn) [Example 229, trans-2-(1-methyl-1H-indazol-6-yl)-N-((R)-1-(5-(2,2,2-trifluoroethoxy)pyrazin-2-yl)ethyl)cyclopropanecarboxemide] | ≤ 0.3 |

tested on: rats; experiment: not given; conditions: rat, in vivo; cited from earlier work

| Compound | effect on mechanical allodynic behavior |
| --- | --- |
| NC1=N[C@H](O)[C@H]2[C@H]3O[C@]4(O)O[C@@H]([C@@H](O)[C@@]2(N1)[C@@H]4O)[C@]3(O)CO [TTX, tetrodotoxin] | significantly reduces mechanical allodynic behavior |

tested on: chronic pain; experiment: not given; conditions: in vivo; cited from earlier work

| Compound | effect on chronic pain |
| --- | --- |
| CCN(CC)CC(=O)Nc1c(C)cccc1C [lidocaine] | effective to treat chronic pain |
